Results on three molecules are retold here after US20220184092A1, “ANTI-VIRAL ACTIVITY OF VPS34 INHIBITORS” (Deciphera Pharmaceuticals, LLC, priority 2020, published 2022).

One data set relates to SARS CoV-2. Nature of the data set: SARS CoV-2 CPE assay for antiviral activity in Vero E6 host cells. The format is cell-based, coronavirus USA_WA1/2020 SARS CoV-2. Conditions: read-out: IC50 for inhibition of SARS CoV-2 mediated cell killing.
The next data set concerns Vero E6 cells. Nature of the data set: in vitro. Format: cell-based. Conditions: African green monkey, 72 h. How it is done:
(§1) Compound cytotoxicity (CC50) is assessed in a BSL-2 counter screen as follows: Host cells in media are added in 25 μl aliquots (4000 cells/well) to each well of assay ready plates prepared with test compounds as above. […] DMSO is maintained at a constant concentration for all wells (0.3%) as dictated by the dilution factor of stock test compound concentrations. After incubating plates at 37° C./5% CO2 and 90% humidity for 72 hours, 30 μl Cell Titer-Glo (Promega) is added to each well. Luminescence is read using a BMG PHERAstar plate reader following incubation at room temperature for 10 minutes to measure cell viability.

A short description of the next data set: in vitro. The format is cell-based. Conditions: African green monkey. Here is the method: as §1
The test system of the next data set is SARS-CoV-2. Nature of the data set: microbe, parasite or virus in culture. Conditions: Severe acute respiratory syndrome coronavirus 2, A549, 48 h; read-out: IC50 for inhibition of SARS CoV-2 mediated cell killing. The format is cell-based.
Where [1] appears, read: Vero C1008, Vero E6 cells, CPE assay, 72 hours, 10-point dose response, high concentration 15 μM.

Like-named read-outs stand apart in the source and are kept apart here. Where only a bound is given, the exact number is not on record here.

As for `Cc1cscc1-c1cc(N2CCOC[C@H]2C)cc(=O)[nH]1` [Compound 3], the IC50 – broadly, the concentration that inhibits the measured activity by half – in the data set on SARS CoV-2 (Vero C1008, 72 h) was > 10 µM; in the data set with SARS-CoV-2 it was 6.39 µM. Also, the CC50 – broadly, the concentration at which the toxic effect on the cells reaches its halfway point – with Vero E6 cells was > 10 µM. Further, the CC50 at 72 h in “in vitro” is > 10 µM.
As to `C[C@@H]1COCCN1c1cc(-c2ccccc2Cl)[nH]c(=O)c1` [Compound 2], the IC50 in the data set on SARS CoV-2 (setting [1]) was found to be 2.76 µM; in the data set on SARS-CoV-2, 0.83 µM. The CC50 in the data set on Vero E6 cells is > 30 µM. In the data set “in vitro”, the CC50 at 72 h is > 30 µM.
Take `C[C@@H]1COCCN1c1cc(-c2ccccc2C(F)(F)F)[nH]c(=O)c1` [Compound 1]: the 50% inhibitory concentration (IC50) in the data set with SARS CoV-2 (setting [1]) amounted to 3.91 µM; in the data set with SARS-CoV-2, 2.05 µM. Also, the CC50 in the data set with Vero E6 cells was > 30 µM. For the same molecule, in the data set “in vitro”, the half-maximal cytotoxic concentration (CC50) at 72 h was > 30 µM.
